The results in this text go back to US10654802B2, “Indoline derivatives and method for using and producing the same” (ARIZONA BOARD OF REGENTS ON BEHALF OF THE UNIVERSITY OF …, priority 2016, dated 2020).

This experiment deals with T1, Nox4 (Homo sapiens, UniProt Q9NPH5).
T1 construct: expressed in transfected cells
T1 sequence (Q9NPH5 1-578): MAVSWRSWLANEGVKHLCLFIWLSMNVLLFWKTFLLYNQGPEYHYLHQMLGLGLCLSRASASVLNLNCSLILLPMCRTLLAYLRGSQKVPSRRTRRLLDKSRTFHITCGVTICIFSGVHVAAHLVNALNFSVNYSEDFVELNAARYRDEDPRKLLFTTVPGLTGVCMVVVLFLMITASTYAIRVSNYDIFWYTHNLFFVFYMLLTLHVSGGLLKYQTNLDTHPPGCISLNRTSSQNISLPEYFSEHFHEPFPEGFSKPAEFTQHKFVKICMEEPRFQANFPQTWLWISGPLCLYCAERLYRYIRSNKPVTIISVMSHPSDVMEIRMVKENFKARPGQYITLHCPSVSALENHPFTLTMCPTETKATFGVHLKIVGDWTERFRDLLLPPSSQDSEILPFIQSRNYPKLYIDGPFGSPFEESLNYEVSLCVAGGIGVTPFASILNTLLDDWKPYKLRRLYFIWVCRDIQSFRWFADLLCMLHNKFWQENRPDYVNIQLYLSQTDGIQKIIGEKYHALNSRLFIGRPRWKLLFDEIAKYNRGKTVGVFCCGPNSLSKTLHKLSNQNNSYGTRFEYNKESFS
T1 sequence (P13498 1-195 partner): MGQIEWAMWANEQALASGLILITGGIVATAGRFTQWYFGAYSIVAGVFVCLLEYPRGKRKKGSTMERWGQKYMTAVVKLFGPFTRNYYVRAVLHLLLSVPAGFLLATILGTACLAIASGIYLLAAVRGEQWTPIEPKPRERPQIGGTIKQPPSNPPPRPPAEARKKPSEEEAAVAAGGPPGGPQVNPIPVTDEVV
In words: Inhibition of Nox4-dependent H2O2 production in HEK/Nox4 cells, Amplex Red assay. Particulars: for remaining activity at 1 µM: 1 μM final concentration; for remaining activity at 1 µM / remaining activity at 5 µM / remaining activity at 10 µM: 1 h, HEK/Nox4 cells, DMSO vehicle = 1.000, n = 3-10, read-out: H2O2 production relative to vehicle control, Mean; for remaining activity at 5 µM: 5 μM final concentration; for remaining activity at 10 µM: 10 μM final concentration. Type of experiment: cell-based. As to the method: A high-throughput screening (HTS) assay was established for Nox4 inhibition, utilizing HEK293 cells that stably over-express Nox4 (HEK/Nox4 cells), which generate high levels of H2O2(Cheng G et al, Gene: 2001, p. 131-140). Over 30,000 compounds have been screened and medicinal chemistry efforts have led to the synthesis of numerous analogs and the identification of a chemically distinct series of selective Nox4 inhibitors. […] IC-50 was evaluated for UANox048 (FIG. 1B).
HEK cells stably transfected to overexpress Nox4 were treated with varying concentrations of test compounds, DPI (all-Nox inhibitor positive control), or DMSO (vehicle control) and incubated for 1 h (FIG. 1). (FIG. 1A) H2O2 presence was evaluated by Amplex Red assay. […] Values represent means±SEM; n=4. P values were calculated by student's two-tailed t test. *p<0.05, **p<0.01, *** p<0.001.

Regarding `O=C(CN1CCN(S(=O)(=O)N2CCCCC2)CC1)N1CCc2ccccc21` [UANOX027, 1-(indolin-1-yl)-2-(4-(piperidin-1-ylsulfonyl)piperazin-1-yl)ethan-1-one], the remaining activity at 1 µM is 113%, the remaining activity at 5 µM came out at 113% and the remaining activity at 10 µM is 112%.
With `O=C(NCCN1CCc2ccccc21)N1CCCC1` [UANOX021, N-(2-(indolin-1-yl)ethyl)pyrrolidine-1-carboxamide], the remaining activity at 1 µM was determined as 74.2%, the remaining activity at 5 µM was 87.6% and the remaining activity at 10 µM was determined as 79.1%.
The matching figures for `O=C(CNC1CCCCCC1)N1CCc2ccccc21` [UANOX023, 2-(cycloheptylamino)-1-(indolin-1-yl)ethan-1-one]: 98.4%, 108% and 100%.
The matching figures for `CCN(CC)S(=O)(=O)NCCN1CCc2ccccc21` [UANOX001, N—(N,N-diethylaminosulfonyl)-2-(indolin-1-yl)ethan-1-amine]: 99.5%, 106% and 103%.
The matching figures for `O=S(=O)(c1ccc(F)cc1)N1CCN(CCN2CCc3ccccc32)CC1` [UANOX064, 1-(2-(4-((4-fluorophenyl)sulfonyl)piperazin-1-yl)ethyl)indoline]: 86.3%, 75.7% and 72.4%.
Consider `CCN(CC)S(=O)(=O)Nc1ccc(N2CCc3ccccc32)cc1` [UANOX038, N—(N,N-diethylaminosulfonyl)-4-(indolin-1-yl)aniline], for which the remaining activity at 1 µM is 92.5%, the remaining activity at 5 µM was found to be 80% and the remaining activity at 10 µM came out at 63.5%.
The like results for `CC(CNC(=O)c1csc(-c2ccncc2)n1)N1CCc2ccccc21` (stereo not shown) [UANOX033, N-(2-(indolin-1-yl)propyl)-2-(pyridin-4-yl)thiazole-4-carboxamide] were, in that order, 100%, 91.2% and 86.7%.
The matching figures for `CC(CNC(=O)N1CCCC1)N1CCc2ccccc21` (stereo not shown) [UANOX020, N-(2-(indolin-1-yl)propyl)pyrrolidine-1-carboxamide]: 73.7%, 87% and 86.6%.
The matching figures for `CN1CCN(C(=O)NCCN2CCc3ccccc32)CC1` [UANOX011, N-(2-(indolin-1-yl)ethyl)-4-methylpiperazine-1-carboxamide]: 98%, 97.9% and 95.6%.
For `COc1ccc(S(=O)(=O)NCC(C)N2CCc3ccccc32)cc1` (stereo not shown) [UANOX034, N-(2-(indolin-1-yl)propyl)-4-methoxybenzenesulfonamide], the remaining activity at 1 µM stood at 95.9%, the remaining activity at 5 µM was 80.3% and the remaining activity at 10 µM worked out at 70.6%. Where the note is “varying concentrations, Amplex Red, FIG. 1A”, the “H2O2 generation by HEK/Nox4 cells” value is “dose-dependent decrease”.
On to `COc1cccc(-c2ccc3c(c2)CCN3C(C)CNS(=O)(=O)N2CCN(C)CC2)c1` (stereo not shown) [UANOX0254, N-(2-(5-(3-methoxyphenyl)indolin-1-yl)propyl)-4-methylpiperazine-1-sulfonamide], for which the remaining activity at 1 µM is 87.8%, the remaining activity at 5 µM was determined as 88% and the remaining activity at 10 µM came to 76.3%.
The like results for `N#Cc1ccc(S(=O)(=O)NCCN2CCc3ccccc32)cc1` [UANOX082, 4-cyano-N-(2-(indolin-1-yl)ethyl)benzenesulfonamide] were, in that order, 90.8%, 70.7% and 60.6%.
The like results for `CC(CNS(=O)(=O)c1ccc(Oc2ccc(C(F)(F)F)cn2)cc1)N1CCc2ccccc21` (stereo not shown) [UANOX070, N-(2-(indolin-1-yl)propyl)-4-((5-(trifluoromethyl)pyridin-2-yl)oxy)benzenesulfonamide] were, in that order, 91.4%, 77.9% and 69.3%.
The like results for `CCN(CC)C(=O)NCC(C)N1CCc2ccccc21` (stereo not shown) [UANOX006, 1,1-diethyl-3-(2-(indolin-1-yl)propyl)urea] were, in that order, 82.2%, 82.5% and 74.1%.
As for `CC(C)(CNS(=O)(=O)c1ccc(F)c(F)c1)N1CCc2ccccc21` [UANOX087, 3,4-difluoro-N-(2-(indolin-1-yl)-2-methylpropyl)benzenesulfonamide], the remaining activity at 1 µM was 99.7%, the remaining activity at 5 µM turned out to be 88.3% and the remaining activity at 10 µM turned out to be 74.1%.
The matching figures for `CC(C)(CNS(=O)(=O)c1ccc(OC(F)(F)F)cc1)N1CCc2ccccc21` [UANOX090, N-(2-(indolin-1-yl)-2-methylpropyl)-4-(trifluoromethoxy)benzenesulfonamide]: 104%, 88.7% and 74.5%.
The like results for `CCN(CC)S(=O)(=O)NCC(C)(C)N1CCc2ccccc21` [UANOX083, N—(N,N-diethylaminosulfonyl)-2-(indolin-1-yl)-2-methylpropane-1-amine] were, in that order, 82.3%, 73% and 66.5%.
The like results for `O=S(=O)(NCCN1CCc2ccccc21)c1ccc(Oc2ccc(C(F)(F)F)cn2)cc1` [UANOX080, N-(2-(indolin-1-yl)ethyl)-4-((5-(trifluoromethyl)pyridin-2-yl)oxy)benzenesulfonamide] were, in that order, 85.5%, 60.1% and 49.1%.
For `COc1ccc(-c2nc(C(=O)NCC(C)N3CCc4ccccc43)cs2)cc1` (stereo not shown) [UANOX054, N-(2-(indolin-1-yl)propyl)-2-(4-(methoxy)phenyl)thiazole-4-carboxamide], the remaining activity at 1 µM turned out to be 90.2%, the remaining activity at 5 µM was determined as 87.6% and the remaining activity at 10 µM was found to be 82.4%.
The like results for `CC(CNS(=O)(=O)N1CCN(C)CC1)N1CCc2ccccc21` (stereo not shown) [UANOX037] were, in that order, 97.2%, 79.3% and 77.3%.
The like results for `O=C(CCN1CCN(S(=O)(=O)N2CCCCC2)CC1)N1CCc2ccccc21` [UANOX031, 1-(indolin-1-yl)-3-(4-(piperidin-1-ylsulfonyl)piperazin-1-yl)propan-1-one] were, in that order, 111%, 111% and 99.7%.
The like results for `CC(C)(CNS(=O)(=O)c1ccc(Oc2ccccc2)cc1)N1CCc2ccccc21` [UANOX085, N-(2-(indolin-1-yl)-2-methylpropyl)-4-phenoxybenzenesulfonamide] were, in that order, 92.7%, 83.5% and 73.6%.
`CC(CNS(=O)(=O)c1ccc(C#N)cc1)N1CCc2ccccc21` (stereo not shown) [UANOX073]: the remaining activity at 1 µM was 94.2%, the remaining activity at 5 µM came out at 75.9% and the remaining activity at 10 µM was found to be 74.4%.
The matching figures for `O=S(=O)(NCCN1CCc2ccccc21)N1CCCC1` [UANOX004, N-(2-(indolin-1-yl)ethyl)pyrrolidine-1-sulfonamide]: 99.4%, 101% and 88.2%.
The like results for `CC(CNC(=O)c1csc(-c2ccccc2)n1)N1CCc2ccccc21` (stereo not shown) [UANOX055, N-(2-(indolin-1-yl)propyl)-2-phenylthiazole-4-carboxamide] were, in that order, 90.2%, 90.8% and 86.8%.
